{"source": "patent US20130160151A1", "about": "“TRANSGENIC ANIMAL AS A MODEL FOR IDENTIFYING ADULT STEM CELLS, AND USES THEREOF” (Universite Pierre et Marie Curie (PARIS 6), priority 2010, published 2013)", "key": {"[1]": {"tested_on": "β-gal positive cells", "assay": "In vitro culture of FAC-sorted blue (β-gal positive) cells with or without EGF", "type": "cell-based", "conditions": "medium containing EGF vs without EGF; FAC-sorted blue cells of the transgenic mouse", "experimental": "FIGS. 6A and 6B show in vitro culture of β-gal positive cells after FAC sorting in absence (6A) or in presence (6B) of EGF.\nThe inventors isolated cells from a transgenic mouse as obtained in Example 1, and isolated them by FAC sorting. Only the blue cells were cultured in vitro.\nThen for proof of concept, the cells were contacted with human recombinant EGF or without EGF. The growth factor was tested for its ability to keep the cells blue over time."}, "[2]": {"tested_on": "skin stem cells", "assay": "Screening feasibility: number of blue clones per well of skin stem cells treated with factors", "type": "cell-based, mouse", "conditions": "skin stem cells from 7 week-old Pw1nlacZ mice, 2 cells/μl, factors added after 3 days in culture, a week treatment, duplicates", "experimental": "FIG. 9 is a graph showing the number of clones of skin stem cells after a week treatment with various factors (EGF, BMP2, BMP4, Activin A).\nFluorescence-activated cell sorting has been performed, dorsal skin from 7 week-old Pw1^nlacZ mice (n=3-5) were collected and cell preparation was obtained. For detection of nuclear β-galactosidase activity, a fluorescein di-β-D-galactopyranoside (FDG) staining kit (Invitrogen) was used according to manufacturer's instructions. Cells were then plated on 24 or 96 wells at density of 2 cells/μl. The cells were treated with 4 different factors after 3 days in culture: • EGF, Human recombinant protein from R&D system • BMP2, Human recombinant protein from Humanzyme • BMP4, Human recombinant protein from Humanzyme • Activin A, Human recombinant protein from Humanzyme\nThe analysis of the effect of different factors has been done using a simple readout: counting the number of blue clones per well. […] This experiment has been done in duplicates."}}, "note": "Entries after “also recorded” stand apart in the source; their conditions may differ.", "data": [{"substance": "EGF: Human recombinant protein from R&D system", "values": [{"measurement": "number of blue cells per clone", "setting": "[1]", "value": "greater; also recorded: higher"}, {"measurement": "number of blue clones", "setting": "[1]", "value": "greater; also recorded: higher"}, {"measurement": "number of blue clones per well (cell growth)", "setting": "[2]", "value": "allows the cells to grow"}]}]}
